Assay results published in US10561681B2, “Antimetastatic 2H-selenopheno[3,2-h]chromenes, synthesis thereof, and methods of using same agents” (Latvian Institute of Organic Synthesis, priority 2016, dated 2020).

System: Lewis lung carcinoma (LLC)
Experiment: Mouse non-metastatic cancer model, Lewis lung carcinoma s.c. in BALB/c mice
Assay type: in vivo
Details: s.c. Day 1, 2, 3, 4, 7, 8, 9, 10, 11; dose 20 mg/kg, total dose 180 mg/kg
Description: Six-week-old female ICR and BALB/c mice were purchased from the University of Tartu Laboratory Animal Centre (Estonia). The mice were housed five to a cage, and under standard conditions (21-23° C., 12 h light: dark cycle), fed ad libitum (R3 diet, Lactamin AB, Kimstad, Sweden) and observed daily. The experimental procedures involving experimental animals were carried out in accordance with the guidelines of the European Community, local laws and policies, and were approved by the Latvian Animal Protection Ethical Committee, the Food and Veterinary Service, Riga, Latvia.
In vivo studies were performed utilizing the mouse sarcoma CCRF-S180 II (CCL-8) and Lewis lung carcinoma (LLC) cell line. All cell lines were purchased from ATCC. The cells were grown in Dulbecco's modified Eagle's medium (Sigma) supplemented with 10% fetal calf serum (Sigma).
ICR mice were subcutaneously inoculated in the back with 5×10^6 CCL-8 cells and BALB/c mice were inoculated with 1×10^6 LLC (Lewis Lung Carcinoma) cells, which were suspended in 0.1 mL of PBS on day zero of the study. The compounds dissolved in DMSO and then in 0.1 mL water (DMSO final concentration 1%) were injected s.c. Mice in the untreated group were similarly given doses of 0.1 mL of water with DMSO. Tumor volume (tumor volume V=[…], a is maximal and b the minimal tumor diameter) was recorded twice per week. […]

SMILES: COC(=O)c1cc2ccc3c(Br)c(CN4CCN(C)CC4)[se]c3c2oc1=O [Compound I-10, Methyl 7-bromo-8-((4-methylpiperazin-1-yl)methyl)-2-oxo-2H-selenopheno[3,2-h]chromene-3-carboxylate]
- Anticancer activity in vivo (inhibition, %), Lewis Lung Carcinoma primary tumor growth: 34%
